Laboratory results from patent US20240228458A1, “PYRIMIDINE DERIVATIVE HAVING PROTEIN KINASE INHIBITORY ACTIVITY, AND THERAPEUTIC PHARMACEUTICAL COMPOSITION COMPRISING SAME” (THERAPEX CO., LTD., priority 2021, published 2024).

Assays:
Assay type in all cases: cell-based
[1] = tested on: Ba/F3 cells expressing EGFR-wt; experiment: Growth inhibition (GI50) of Ba/F3 cells expressing EGFR-wt, Celltiter glo; conditions: Mus musculus, BaF3, 72 h
How it was run: (§1)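 Antiproliferative activity was assessed in EGFR-mutant or wild-type Ba/F3 cells over 72 h at 37 °C with 5% CO2. Cell viability was determined by CellTiter-Glo, and GI50 taken as the compound concentration inhibiting growth by 50%.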

[2] = tested on: Ba/F3 cells expressing del19/T790M/C797S (EGFR-DTC); experiment: Growth inhibition (GI50) of Ba/F3 cells expressing del19/T790M/C797S (EGFR-DTC), Celltiter glo; conditions: Mus musculus, BaF3, 72 h
How it was run: as §1

[3] = tested on: Ba/F3 cells expressing L858R/T790M/C797S (EGFR-LTC); experiment: Growth inhibition (GI50) of Ba/F3 cells expressing L858R/T790M/C797S (EGFR-LTC), Celltiter glo; conditions: Mus musculus, BaF3, 72 h
How it was run: as §1

[4] = tested on: Ba/F3 cells expressing del19/T790M (EGFR-DT); experiment: Growth inhibition (GI50) of Ba/F3 cells expressing del19/T790M (EGFR-DT), Celltiter glo; conditions: Mus musculus, BaF3, 72 h
How it was run: as §1

[5] = tested on: Ba/F3 cells expressing L858R/T790M (EGFR-LT); experiment: Growth inhibition (GI50) of Ba/F3 cells expressing L858R/T790M (EGFR-LT), Celltiter glo; conditions: Mus musculus, BaF3, 72 h
How it was run: as §1

[6] = tested on: parental Ba/F3 cell line; experiment: Growth inhibition (GI50) of the parental Ba/F3 cell line (not introduced with EGFR variants), Celltiter glo; conditions: Mus musculus, BaF3, 72 h, parental Ba/F3 cells
How it was run: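 Viable cell count by CellTiter-Glo after 72 h at 37 °C gave GI50 values (μM, 50% growth inhibition). Cells lacking EGFR variants were seeded at 100,000 cells/ml and dosed 4 h later with 4-fold serial dilutions from a 2 mM stock, 0.5% DMSO.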

Structure (SMILES) | GI50 [1] [nM] | GI50 [2] [nM] | GI50 [3] [nM] | GI50 [4] [nM] | GI50 [5] [nM] | GI50 [6] [nM]
COc1cc(N2CCC(N3CCN(C)CC3)CC2)c(F)cc1Nc1ncc(Br)c(Nc2cc3c(cc2N(C)S(C)(=O)=O)CCO3)n1 [Example 256, N-(6-((5-bromo-2-((5-fluoro-2-methoxy-4-(4-(4-methylpiperazin-1-yl)piperidin-1-yl)phenyl)amino)pyrimidin-4-yl)amino)-2,3-dihydrobenzofuran-5-yl)-N-methylmethanesulfonamide] | 100 to 500 | 25 to 100 | 100 to 500 | 1 to 25 | 100 to 500 | 100 to 500
CN1CCN(C2CCN(c3cc(Cl)c(Nc4ncc(Cl)c(Nc5cc6c(cc5N(C)S(C)(=O)=O)CCO6)n4)cc3Cl)CC2)CC1 [Example 259, N-(6-((5-chloro-2-((2,5-dichloro-4-(4-(4-methylpiperazin-1-yl)piperidin-1-yl)phenyl)amino)pyrimidin-4-yl)amino)-2,3-dihydrobenzofuran-5-yl)-N-methylmethanesulfonamide] | 500 to 2000 | 1 to 25 | 100 to 500 | 25 to 100 | 25 to 100 | 500 to 2000
COc1ccc(N(C)S(C)(=O)=O)c(Nc2nc(Nc3cc(C)c(N4CCC(N5CCN(C)CC5)CC4)cc3OC)ncc2Cl)c1 [Example 260, N-(2-((5-chloro-2-((2-methoxy-5-methyl-4-(4-(4-methylpiperazin-1-yl)piperidin-1-yl)phenyl)amino)pyrimidin-4-yl)amino)-4-methoxyphenyl)-N-methylmethanesulfonamide] | 100 to 500 | 100 to 500 | 100 to 500 | 1 to 25 | 25 to 100 | 2000 to 10000
COc1cc(N2CCC(N3CCN(C4CC4)CC3)CC2)c(C)cc1Nc1ncc(Br)c(Nc2cc3c(cc2N(C)S(C)(=O)=O)CCO3)n1 [Example 261, N-(6-((5-bromo-2-((4-(4-(4-cyclopropylpiperazin-1-yl)piperidin-1-yl)-2-methoxy-5-methylphenyl)amino)pyrimidin-4-yl)amino)-2,3-dihydrobenzofuran-5-yl)-N-methylmethanesulfonamide] | 25 to 100 | 100 to 500 | 25 to 100 | 1 to 25 | 25 to 100 | 2000 to 10000
COc1cc(N2CCC(N3CCC(N(C)C)C3)CC2)c(C)cc1Nc1ncc(Br)c(Nc2cc3c(cc2N(C)S(C)(=O)=O)CCO3)n1 (stereo not drawn) [Example 262, N-(6-((5-bromo-2-((4-(4-(3-(dimethylamino)pyrrolidin-1-yl)piperidin-1-yl)-2-methoxy-5-methylphenyl)amino)pyrimidin-4-yl)amino)-2,3-dihydrobenzofuran-5-yl)-N-methylmethanesulfonamide] | 100 to 500 | 25 to 100 | 25 to 100 | 1 to 25 | 25 to 100 | 25 to 100
Cc1cc(Nc2ncc(Cl)c(Nc3cc4c(cc3N(C)S(C)(=O)=O)CCO4)n2)c(Cl)cc1N1CCC(N2CCN(C)CC2)CC1 [Example 263, N-(6-((5-chloro-2-((2-chloro-5-methyl-4-(4-(4-methylpiperazin-1-yl)piperidin-1-yl)phenyl)amino)pyrimidin-4-yl)amino)-2,3-dihydrobenzofuran-5-yl)-N-methylmethanesulfonamide] | 500 to 2000 | 500 to 2000 | 100 to 500 | 100 to 500 | 100 to 500 | > 10000
COc1cc(N2CCC(N3CCCN(C)CC3)CC2)c(Cl)cc1Nc1ncc(Cl)c(Nc2cc3c(cc2N(C)S(C)(=O)=O)CCO3)n1 [Example 264, N-(6-((5-chloro-2-((5-chloro-2-methoxy-4-(4-(4-methyl-1,4-diazepan-1-yl)piperidin-1-yl)phenyl)amino)pyrimidin-4-yl)amino)-2,3-dihydrobenzofuran-5-yl)-N-methylmethanesulfonamide] | 100 to 500 | 25 to 100 | 25 to 100 | 1 to 25 | 1 to 25 | 2000 to 10000
COc1cc(N2CCC(N3CCCN(C)CC3)CC2)c(C)cc1Nc1ncc(Cl)c(Nc2cc3c(cc2N(C)S(C)(=O)=O)CCO3)n1 [Example 265, N-(6-((5-chloro-2-((2-methoxy-5-methyl-4-(4-(4-methyl-1,4-diazepan-1-yl)piperidin-1-yl)phenyl)amino)pyrimidin-4-yl)amino)-2,3-dihydrobenzofuran-5-yl)-N-methylmethanesulfonamide] | 100 to 500 | 25 to 100 | 25 to 100 | 25 to 100 | 25 to 100 | 500 to 2000
COc1cc(N2CCC(N3CCN(C4CC4)CC3)CC2)c(C)cc1Nc1ncc(Cl)c(Nc2cc3c(cc2N(C)S(C)(=O)=O)CCO3)n1 [Example 266, N-(6-((5-chloro-2-((4-(4-(4-cyclopropylpiperazin-1-yl)piperidin-1-yl)-2-methoxy-5-methylphenyl)amino)pyrimidin-4-yl)amino)-2,3-dihydrobenzofuran-5-yl)-N-methylmethanesulfonamide] | 2000 to 10000 | 500 to 2000 | 100 to 500 | 25 to 100 | 100 to 500 | 2000 to 10000
COc1cc(N2CCC(N3CCCC(N(C)C)C3)CC2)c(C)cc1Nc1ncc(Cl)c(Nc2cc3c(cc2N(C)S(C)(=O)=O)CCO3)n1 (stereo not drawn) [Example 267, N-(6-((5-chloro-2-((4-(3-(dimethylamino)-[1,4′-bipiperidin]-1′-yl)-2-methoxy-5-methylphenyl)amino)pyrimidin-4-yl)amino)-2,3-dihydrobenzofuran-5-yl)-N-methylmethanesulfonamide] | 500 to 2000 | 100 to 500 | 25 to 100 | 25 to 100 | 25 to 100 | 500 to 2000
CN1CCN(C2CCN(c3cc(F)c(Nc4ncc(Cl)c(Nc5cc6c(cc5NS(C)(=O)=O)CCO6)n4)cc3F)CC2)CC1 [Example 268, N-(6-((5-chloro-2-((2,5-difluoro-4-(4-(4-methylpiperazin-1-yl)piperidin-1-yl)phenyl)amino)pyrimidin-4-yl)amino)-2,3-dihydrobenzofuran-5-yl)methanesulfonamide] | 500 to 2000 | 100 to 500 | 100 to 500 | 25 to 100 | 25 to 100 | 2000 to 10000
COc1cc(N2CCC(N3CCN(C)CC3)CC2)c(Br)cc1Nc1ncc(Cl)c(Nc2cc3c(cc2NS(C)(=O)=O)CCO3)n1 [Example 270, N-(6-((2-((5-Bromo-2-methoxy-4-(4-(4-methylpiperazin-1-yl)piperidin-1-yl)phenyl)amino)-5-chloropyrimidin-4-yl)amino)-2,3-dihydrobenzofuran-5-yl)methanesulfonamide] | 500 to 2000 | 1 to 25 | 1 to 25 | 1 to 25 | 1 to 25 | 500 to 2000
COc1cc(N2CCC(N3CCN(C)CC3)CC2)c(Br)cc1Nc1ncc(Br)c(Nc2cc3c(cc2NS(C)(=O)=O)CCO3)n1 [Example 271, N-(6-((2-((5-bromo-2-methoxy-4-(4-(4-methylpiperazin-1-yl)piperidin-1-yl)phenyl)amino)-5-bromopyrimidin-4-yl)amino)-2,3-dihydrobenzofuran-5-yl)methanesulfonamide] | 2000 to 10000 | 1 to 25 | 1 to 25 | 1 to 25 | 1 to 25 | 2000 to 10000
COc1cc(N2CCC(N3CCN(C)CC3)CC2)c(C)cc1Nc1ncc(Cl)c(Nc2ccc3c(c2)N(C)CC3)n1 [Example 272] | 2000 to 10000 | 500 to 2000 | 500 to 2000 | 500 to 2000 | 500 to 2000 | 2000 to 10000
COc1cc(N2CCC(N3CCN(C)CC3)CC2)c(Cl)cc1Nc1ncc(Cl)c(Nc2ccc3c(c2)N(C)CC3)n1 [Example 273] | 25 to 100 | 500 to 2000 | 100 to 500 | 500 to 2000 | 100 to 500 | 500 to 2000
Cc1cc(Nc2ncc(Cl)c(Nc3ccc4c(c3)N(C)CC4)n2)c(Cl)cc1N1CCC(N2CCN(C)CC2)CC1 [Example 274] | 25 to 100 | 2000 to 10000 | 500 to 2000 | 500 to 2000 | 500 to 2000 | 500 to 2000
COc1cc(N2CCC(N3CCCN(C)CC3)CC2)c(C)cc1Nc1ncc(Cl)c(Nc2ccc3c(c2)N(C)CC3)n1 [Example 275] | 100 to 500 | 500 to 2000 | 500 to 2000 | 100 to 500 | 500 to 2000 | 500 to 2000
COc1cc(N2CCC(N3CCN(C)CC3)CC2)c(C)cc1Nc1ncc(Cl)c(Nc2cc3c(cc2NS(C)(=O)=O)CCN3C)n1 [Example 276, N-(6-((5-chloro-2-((2-methoxy-5-methyl-4-(4-(4-methylpiperazin-1-yl)piperidin-1-yl)phenyl)amino)pyrimidin-4-yl)amino)-1-methylindolin-5-yl)methanesulfonamide] | 500 to 2000 | 100 to 500 | 100 to 500 | 25 to 100 | 100 to 500 | 2000 to 10000
Cc1cc(Nc2ncc(Cl)c(Nc3ccc4c(c3)NCC4)n2)c(Cl)cc1N1CCC(N2CCN(C)CC2)CC1 [Example 277] | > 10000 | > 10000 | > 10000 | 2000 to 10000 | 2000 to 10000 | 2000 to 10000
COc1cc(N2CCC(N3CCN(C)CC3)CC2)c(Cl)cc1Nc1ncc(Cl)c(Nc2ccc3c(c2)NCC3)n1 [Example 278] | > 10000 | 2000 to 10000 | > 10000 | > 10000 | 2000 to 10000 | 2000 to 10000
